Test results reported in PMC5838563, “Compounds producing an effective combinatorial regimen for disruption of HIV‐1 latency” (EMBO Molecular Medicine, 2017).

What was measured:
[1] = test system: IL‐2 production and CD69 in primary cells; design: method as in previous results (reference not given); conditions: 10 nM PEP005, primary cells; ref previous results (reference not given); cited from earlier work
[2] = test system: PKCδ/θ and IκBα/IκBε; design: method as in Jiang et al, 2015; conditions: 12 nM PEP005; ref Jiang et al, 2015; cited from earlier work
[3] = test system: HIV‐1 LTR (Jurkat^Tat LTR‐DsRed clone #131); assay: mdHIV LTR‐DsRed reporter assay, clone #131; type: cell-based
Excerpt: HIV‐1 tends to integrate into actively transcribed regions of the host genome (Jordan et al, 2003; Lewinski et al, 2006; Ikeda et al, 2007). Each HIV‐1‐infected patient carries viral DNA integrated at different chromosomal locations, and as we have previously shown, the site of viral integration influences how latently infected T cells respond to different stimuli (Hashemi et al, 2016). Therefore, an ideal LRA should be capable of disrupting latency in cell models carrying integrated viral reporters at multiple different regions within the host genome. […]
Figure 5 Effect of PH02 on HIV provirus integrated at different chromosomal locations • A The effect of PH compounds was analyzed using clonal lines bearing single‐copy integrations of the mini‐dual fluorescent HIV‐1 LTR reporter, md‐HIV, where GFP is constitutively expressed from the EIF‐1α internal promoter, and DsRed from the 5′ LTR. • B Fluorescence‐activated cell sorting (FACS) of cells bearing md‐HIV provirus indicates expression of EIF‐1α‐GFP and LTR‐dsRed. Stimulation of the md‐HIV lines generally causes a shift of the fluorescence profile from GFP^+/DsRed^− toward GFP^+/DsRed^+. • C, D Clone 11 or clone 131 was treated with the indicated concentrations of PH02 (left panels) or PH02 in combination with 10 nM PEP005 (right panels) for 24 h and cells analyzed by flow cytometry. […]

Compound | CD69 [1] | IL‐2 production [1] | time post‐treatment at which phosphorylation is induced [2] | concentration reactivating viral transcription (LTR‐DsRed, ∆MFI) ([3]; PH02 alone, 24 h, serial dilutions 28–0.2 μM) | PH02 concentration producing increased effects on HIV‐1 LTR transcription with PEP005 ([3]; in combination with 10 nM PEP005, 24 h)
C/C=C(/C)C(=O)O[C@H]1C(C)=C[C@]23C(=O)[C@@H](C=C(CO)[C@@H](O)[C@]12O)[C@H]1[C@@H](C[C@H]3C)C1(C)C [PEP005, ingenol‐3‐angelate, reference compound] | does induce upregulation of CD69 | does not cause | 0.5 to 2 h |  | 
CC(=O)Oc1ccccc1N(C=C1Sc2ccccc2C1=O)C(C)=O [PH02, 2‐{acetyl[(3‐oxo‐1‐benzothien‐2(3H)‐ylidene)methyl]amino}phenyl acetate] |  |  |  | above 1.75 μM | above 1.75 μM
